From paper PMC10454375, “Cell-Impermeable Inhibitors Confirm That Intracellular Human Transglutaminase 2 Is Responsible for the Transglutaminase-Associated Cancer Phenotype” (International Journal of Molecular Sciences, 2023)
Peptide text beside a SMILES is read from it. * marks the point of attachment. X1 = C=CC(=O)NCCCCC(NC(=O)OCc1ccccc1)C(=O)N1CCN(C(=O)C(CCC(=O)*)NC(=O)c2cccc3ccccc23)CC1

Key:
[1] = test system: MDA-MB-436 cells; assay: Real-time cell migration assay (xCELLigence RTCA), MDA-MB-436; format: cell-based; settings: 25 µM, 24 h
Description: (§1) We assayed the motility of MDA-MB-436 cells in the presence of vehicle or TG2 inhibitors 18 (NCEG2), 19 (NCEG-RHB), and NC9 at 25 μM concentration with the xCELLigence RTCA system (Real-Time Cell Analyzer System, Acea Biosciences Inc., San Diego, CA, USA). About 3 × 10^5 cells/wells were put into the top chambers of CIM-16 plates and the bottom chambers were filled with medium containing 5% FBS (Gibco Laboratories, New York, NY, USA) as a chemoattractant. Signal detection was done every 15 min for 24 h and each determination was performed in triplicate. Impedance values were expressed as a dimensionless parameter (Cell Index, CI), and values greater than 0.1 were considered positive. The rate of cell migration was also quantified by calculating the steepness, inclination, gradient, and changing rate of the CI curves over time (Slope).
(§2) A Vehicle B 0.025 Vehicle
(§3) C 2.5 Vehicle D 0.15 Vehicle
(§4) Figure S11. Migration assay: A) Dynamic monitoring of the migration of MDA-MB-436 cells.
(§5) We recorded for 24 hours the migration of the cells in the presence only of the vehicle or of the indicated TG2 inhibitors, used at 25 µM concentrations. Data are reported as Cell Index (CI) values ± SD. […] We recorded for 24 hours the migration of the cells in the presence only of the vehicle or of the indicated TG2 inhibitors, used at 25 µM concentrations. […]

[2] = test system: HaCaT cells; assay: Cell proliferation, HaCaT; format: cell-based, human; settings: concentrations up to 100 µM
Description: (§6) Figure 4 Treatment of cancer cells with cell-permeable and cell-impermeable inhibitors. (A) HaCaT and SCC-13 are epidermis-derived cutaneous squamous cell carcinoma cells that were treated for 10 h with NCEG-RHB prior to imaging using a spinning disc confocal microscope. NCEG-RHB localization is detected adjacent to the nuclei (N) in both cell types and is indicated by red arrows. The HaCaT cell cultures were also stained for 15 min with MitoTracker Green before imaging. MitoTracker Green detects mitochondria membrane proteins inside the cell and the labelling is indicated by green arrows. White scale bars = 100 µm. (B) SCC-13 cells treated with cell-impermeable inhibitor 18 (NCEG2) and cell-permeable inhibitors NC9, AA9, and NCEG-RHB. Scale bars represent 50 µm; (*) p value < 0.001 (C) HaCaT cells treated with cell-impermeable inhibitor 18 (NCEG2) and cell-permeable inhibitors NC9 and AA9. Scale bars represent 50 µm; (*) p value < 0.001. (D) MDA-MB-436 cells treated with cell-impermeable 18 (NCEG2) and with cell-permeable inhibitors NC9, AA9 and NCEG-RHB. Experiments were carried out in triplicate and are represented as average ± SD of the percentage of living cells; (**) p value < 0.01.

[3] = test system: SCC-13 cells; assay: Cell proliferation, SCC-13; format: cell-based, human; settings: concentrations up to 100 µM
Description: as §6

[4] = test system: MDA-MB-231 cells; assay: Cell proliferation assay, MDA-MB-231; format: cell-based; settings: concentrations up to 100 µM, 48 h
Description: (§7) MDA-MB-468 cells were cultured in Dulbecco’s Modified Eagle Medium (DMEM)/F-12 DMEM, Gibco Laboratories, New York, NY, USA), 10% FBS (Gibco Laboratories, New York, NY, USA), 50 U/mL penicillin, and 50 μg/mL streptomycin (Gibco Laboratories, New York, NY, USA), while MDA-MB-231 and MDA-MB-436 cells were cultured in DMEM High Glucose with/stable L-Glutamine (EuroClone, Pero, MI, Italy), 10% FBS, and antibiotics, all grown at 37 °C and in 5% CO2 humidified atmosphere.
(§8) The compounds were added to the cultures at the concentrations of 25, 50, 75, and 100 μM and 0.1% DMSO represented the negative control. After 48 h, the cells were trypsinized for 2 min at 37 °C, trypsin was inactivated using 1 mL of the recovered supernatants (containing 10% FBS), centrifuged at room temperature 5 min at 1200 rpm, washed with PBS and resuspended in complete medium. Finally, 50 μL of cells were diluted in 500 μL of Count & Viability Reagent (Luminex, Prodotti Gianni, Milan, Italy) and analyzed by MUSE®.
(§9) The experiments were carried out in triplicate and the average ± SD of the percentage of living cells was reported. Statistical analysis was performed calculating p value by a Student’s t-test, two-tailed, with homovariance and significance expressed by (*) p value < 0.05.
(§10) Supplementary cellular evaluation figures
(§11) Concentration (µM) Concentration (µM)
(§12) Figure S10. […]

[5] = test system: MDA-MB-468 cells; assay: Cell proliferation assay, MDA-MB-468; format: cell-based; settings: concentrations up to 100 µM, 48 h
Description: as §7, §8, §9, §10, §11, §12

[6] = test system: MDA-MB-436 cells; assay: Cell proliferation assay, MDA-MB-436; format: cell-based; settings: concentrations up to 100 µM, 48 h
Description: as §7, §8
The experiments were carried out in triplicate and the average ± SD of the percentage of living cells was reported. […]
Figure 4 Treatment of cancer cells with cell-permeable and cell-impermeable inhibitors. […] NCEG-RHB localization is detected adjacent to the nuclei (N) in both cell types and is indicated by red arrows. […]

[7] = test system: MDA-MB-231 cells; assay: Real-time cell migration assay (xCELLigence RTCA), MDA-MB-231; format: cell-based; settings: 25 µM, 24 h
Description: as §1, §2, §3, §4, §5

## C=CC(=O)NCCCCC(NC(=O)OCc1ccccc1)C(=O)N1CCN(C(=O)C(CCC(=O)NCC(=O)NCC(=O)NCC(=O)NC(CC(=O)O)C(=O)NC(CC(=O)O)C(=O)NC(CC(=O)O)C(=O)O)NC(=O)c2cccc3ccccc23)CC1 (stereo not shown) [Compound 18] (X1-GGGDDD-OH; configuration not given here)
[1]
  effect on cell migration: failed to suppress migration
[2]
  effect on cell proliferation: did not have any effect on cell proliferation
[3]
  effect on cell proliferation: did not have any effect on cell proliferation
[4]
  effect on cell proliferation: did not have any effect on cell proliferation
[5]
  effect on cell proliferation: did not have any effect on cell proliferation
[6]
  effect on cell proliferation: did not have any effect on cell proliferation
[7]
  effect on cell migration: failed to suppress migration
